# Legend:
# [1] = cited from earlier work
# solubility parameter = type: physicochemical
# From the text: The solubility parameter for a substance is a numerical value which indicates the relative solvency behavior of that substance. The concept is discussed and defined in US 2008/0145403.
# Latanoprost is very difficult to incorporate into biodegradable polymer matrices, because it is an oil. It has now been discovered, that this problem can be overcome by using a combination of high molecular weight PLA and PLGA polymers and fabricating the implant by melt extrusion or casting in an appropriate solvent. The oily drug substance (DS), i.e. latanoprost, helps plasticize the polymer and allows the production of a homogeneous polymer film. […] It has been determined that dichloromethane is a good solvent for PLA and PLGA, which have solubility parameters of about 21.1 MPa^0.5 and about 22.1 MPa^0.5, respectively. Thus, a solvent having a solubility parameter of from 17.1 to 26.1 MPa^0.5, preferably from 17.6 to 25.6, e.g. 21.1 or 22.1 MPa^0.5 may be used in the practice of this invention. Such solvents may include dichloromethane, isopropanol, ethanol, acetonitrile and octanol.
Molecule,"solubility in organic solvents ([1]; acetone, ethanol, ethyl acetate, isopropanol, methanol and octanol)",solubility in acetonitrile ([1]; acetonitrile),solubility in water ([1]; water),solubility parameter (solubility parameter)
CC(C)OC(=O)CCC/C=C\C[C@@H]1[C@@H](CC[C@@H](O)CCc2ccccc2)[C@H](O)C[C@@H]1O [Latanoprost],freely soluble,very soluble,practically insoluble,22-24 MPa^0.5
PEG 3350,,,,about 20 MPa^0.5
ClCCl [dichloromethane],,,,19.8 MPa^0.5
"poly(D,L-lactide) [PLA]",,,,about 21.1 MPa^0.5
"poly(D,L-lactide-co-glycolide) [PLGA]",,,,about 22.1 MPa^0.5

# From patent publication US20120276186A1, “SUSTAINED RELEASE LATANOPROST IMPLANT” (priority 2011, published 2012)
